# Laboratory results as given in PubChem BioAssay AID1645866 (Buhrlage Lab, Dana-Farber Cancer Institute and Novartis …, 2021).
# The source made the active and inactive calls.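 How the source made its calls: active means in confirmatory dose-response testing, peak deubiquitinase inhibition of 30% or more; inactive means the rest.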 Positions of bridges follow the written chain, without caps; N, C: chain ends. Residues, ends and D or L forms follow the SMILES beside them. ξ: configuration not given here. *: point of attachment. Pentadecanoyl(3ξ-OH,15-Gua) = N=C(N)NCCCCCCCCCCCCC(O)CC(=O)*
# Molecular target: Ubiquitin carboxyl-terminal hydrolase 28 (Homo sapiens) (UniProt Q96RU2)
# Assay: Concentration-response biochemical assay confirming initial hits as inhibitors of ubiquitin-specific protease 28 (AID 1645866)
# Settings: purified USP28, ubiquitin-rhodamine fluorescence, 30 min
# Chain of Ubiquitin carboxyl-terminal hydrolase 28 (Homo sapiens) (Q96RU2 whole entry, looked up): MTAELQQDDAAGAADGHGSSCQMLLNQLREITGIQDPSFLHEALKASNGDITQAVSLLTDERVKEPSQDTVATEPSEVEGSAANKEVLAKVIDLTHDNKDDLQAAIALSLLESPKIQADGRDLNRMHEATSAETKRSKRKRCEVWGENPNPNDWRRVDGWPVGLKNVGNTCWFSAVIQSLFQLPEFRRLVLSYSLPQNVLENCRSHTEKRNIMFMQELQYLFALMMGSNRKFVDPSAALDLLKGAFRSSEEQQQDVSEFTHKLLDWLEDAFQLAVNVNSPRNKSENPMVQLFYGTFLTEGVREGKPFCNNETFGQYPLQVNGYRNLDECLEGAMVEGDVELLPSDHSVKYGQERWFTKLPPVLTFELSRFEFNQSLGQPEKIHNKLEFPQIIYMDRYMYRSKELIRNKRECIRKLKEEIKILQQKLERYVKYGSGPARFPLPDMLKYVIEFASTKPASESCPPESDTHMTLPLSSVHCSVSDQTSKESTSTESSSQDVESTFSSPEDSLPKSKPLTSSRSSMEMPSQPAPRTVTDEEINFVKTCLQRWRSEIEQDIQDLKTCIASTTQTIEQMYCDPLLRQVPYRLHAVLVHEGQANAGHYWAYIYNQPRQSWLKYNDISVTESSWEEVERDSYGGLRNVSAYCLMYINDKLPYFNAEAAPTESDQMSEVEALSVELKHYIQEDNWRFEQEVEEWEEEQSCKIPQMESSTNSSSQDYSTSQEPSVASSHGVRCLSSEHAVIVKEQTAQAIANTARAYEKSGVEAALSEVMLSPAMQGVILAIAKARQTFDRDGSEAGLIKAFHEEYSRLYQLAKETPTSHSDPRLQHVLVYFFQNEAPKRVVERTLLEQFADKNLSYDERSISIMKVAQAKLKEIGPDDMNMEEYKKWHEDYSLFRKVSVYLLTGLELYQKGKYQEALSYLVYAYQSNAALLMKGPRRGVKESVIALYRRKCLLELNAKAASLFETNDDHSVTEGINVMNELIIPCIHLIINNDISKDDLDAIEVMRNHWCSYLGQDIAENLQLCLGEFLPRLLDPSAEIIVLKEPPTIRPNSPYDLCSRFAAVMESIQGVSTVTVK
row,Compound,IC50
1,CCN1CCCC1CN(Cc1cc2cc(OC)ccc2[nH]c1=O)C(=O)NCc1ccccc1 (centres undefined),> 50 µM (inactive)
2,CNC(=O)C1CN(C(=O)c2ccc(OC)cc2)CC12CCCC2 (centres undefined),> 50 µM (inactive)
3,CCOc1ccccc1NC(=O)COc1cc(OC)ccc1C(=O)c1ccccc1,4.45 µM
4,O=C(Nc1ccc(F)cc1)Nc1ccccc1OCc1cc(=O)n2ccccc2n1,9.44 µM
5,CC1CCc2sc(NC(=O)c3ccccc3Oc3ccccc3)c(C(N)=O)c2C1 (centres undefined),15.2 µM
6,Cc1ccc(CNC(=O)CCCn2c(=O)c3sccc3n(CC(=O)OCc3ccccc3)c2=O)cc1,2.15 µM
7,O=C(Nc1ccc2c(c1)OCCO2)c1ccc(N2CCCCC2)nn1,31.6 µM
8,CCC(C(=O)NCc1ccncc1)N(c1cccc(Cl)c1)S(C)(=O)=O (centres undefined),> 50 µM (inactive)
9,CCOc1ccc(-c2cc3nc(C4CCN(C(=O)OC(C)(C)C)CC4)c(C(=O)Nc4cc(F)ccc4F)cn3n2)cc1,> 50 µM (inactive)
10,Cc1ccc(C)c(CSC2=NCCN2C(=O)c2ccco2)c1,4.07 µM
11,COc1ccc(NC(=O)c2ccc(Nc3nnc(C)c4ccccc34)cc2)cc1,22.5 µM
12,CC1(C)C[C@@H](O)[C@]2(C)CC[C@]3(C)C(=CCC4[C@@]5(C)CC[C@H](O)[C@](C)(CO)[C@@H]5CC[C@]43C)[C@@H]2C1 (some centres undefined),> 50 µM (inactive)
13,c1ccc2c(c1)ccc1nnc(-c3ccc4c(c3)OCO4)n12,> 50 µM (inactive)
14,COc1ccccc1CNC(=O)c1ccc(CSc2nc3ccncc3n2Cc2ccccc2)cc1,30.9 µM
15,Clc1cncc(Oc2nc(-c3cccnc3)nc3ccccc23)c1,9.69 µM
16,CC(C)=CCC/C(C)=C/Cc1c(O)cc2c(c1O)C(=O)OC2,2.33 µM
17,CC(=O)CN1CC2(CCN(Cc3ccc(F)cc3)CC2)COc2ccccc2S1(=O)=O,> 50 µM (inactive)
18,Cc1ccc(-c2nc(-c3ccccc3)c(S(=O)(=O)CC(=O)Nc3ccc(C)c(C)c3)[nH]2)cc1,42.3 µM
19,COc1ccccc1-c1ccc(SCC(=O)Nc2ccc3c(c2)OCCO3)nn1,2.03 µM
20,O=C(Cn1cnc2c(oc3ccccc32)c1=O)NCc1ccccc1Cl,22.2 µM
21,CC(C)OC(=O)c1cc2c(ccn2C)n1CC(=O)N1CCN(C(=O)c2ccco2)CC1,> 50 µM (inactive)
22,CCOC(=O)c1cc2c(ccn2C)n1CC(=O)N1CCC(C)CC1,> 50 µM (inactive)
23,CCc1nc2c(NC(=O)Nc3cccc(C(=O)OC)c3)cccn2n1,2.91 µM
24,CCCC[C@@H](C)/C=C(C)/C=C(\C)C(=O)NC1=C[C@](O)(/C=C/C=C/C=C/C(=O)NC2=C(O)CCC2=O)[C@@H]2O[C@@H]2C1=O,2.56 µM
25,Cc1ccc(Cn2cc(-c3noc(-c4ccncc4)n3)nn2)cc1,36.9 µM

row,Compound,IC50
1,O=S(=O)(Nc1ccc(O)cc1)c1ccc2oc3ccc(S(=O)(=O)Nc4ccc(O)cc4)cc3c2c1,22.3 µM
2,O=C(NCCc1ccccc1F)c1cn2cc(Cl)ccc2n1,31.8 µM
3,O=C(/C=C/C=C/C=C/C1CCCCC1)NC1=C[C@@](O)(/C=C/C=C/C=C/C(=O)NC2=C(O)CCC2=O)[C@@H]2O[C@@H]2C1=O,3.62 µM
4,CCCC(=O)Nc1ccc(SCc2nnc(-c3ccccc3)o2)cc1,12.7 µM
5,O=C(NCC1CC1)C1CCCN(c2ccc(-c3ccccc3)nn2)C1 (centres undefined),> 50 µM (inactive)
6,Cc1nnc(-c2nnc(NCc3ccc(Cl)cc3)c3ccccc23)o1,> 50 µM (inactive)
7,Cn1c(=O)c2c(ncn2CC(=O)NC2CCCc3ccccc32)n(C)c1=O (centres undefined),> 50 µM (inactive)
8,Cc1c(-c2nsc(NC(=O)c3ccc(Cl)cc3)n2)nnn1-c1ccccc1F,5.34 µM
9,Cc1c(C(=O)Nc2ccc(-c3nnc4n3CCCCC4)cc2)oc2c1ccc1ccccc12,4.09 µM
10,COc1ccccc1CNC(=O)CCCCn1c(=O)c2ccccc2n(Cc2ccccc2C#N)c1=O,13 µM
11,O=C(c1cn(-c2cccc(F)c2)nn1)N1CCc2ccccc2C1,22.8 µM
12,COc1cccc(NC(=O)CCc2c(C)nn(-c3cc(N4CCCCC4)ncn3)c2C)c1,7.17 µM
13,Cc1ccc2c(c1)c(=O)c(C(=O)c1ccccc1)cn2CC(=O)Nc1ccccc1,15.4 µM
14,CC(=O)Nc1ccc(-n2cnc(C(=O)NC(C)c3ccccc3)c2)nc1 (centres undefined),20.5 µM
15,CC(=O)N1CCc2cc(S(=O)(=O)NC(Cc3ccccc3)C(=O)Nc3cccc(Cl)c3C)ccc21 (centres undefined),9.5 µM
16,COc1ccc(CNC(=O)Nc2cccc3ccccc23)cc1,9.99 µM
17,O=C(NC1CCN(Cc2ccccc2)CC1)c1[nH]nc2c1CCc1ccccc1-2,6.27 µM
18,O=C(Nc1ccc2c(c1)OCCO2)c1ccc(N2CCCC2=O)cc1,7.18 µM
19,Cc1cc(C)c(O)c(-c2cc(C(=O)Nc3ccccc3Cl)[nH]n2)c1,3.54 µM
20,COc1ccc(N2CCN(Cc3nnnn3Cc3ccc4c(c3)OCO4)CC2)cc1,> 50 µM (inactive)
21,COc1ccccc1NC(=O)c1cc2c(C)nn(Cc3ccccc3)c2s1,38.1 µM
22,COc1ccc(NC(=O)CNC(=O)c2ccc3nc(-n4cccc4)sc3c2)cc1,3.11 µM
23,CC(=O)c1ccc(NC(=O)CSc2nc(-c3ccccc3)nc3c2COC(C)(C)C3)cc1,4.07 µM
24,Cn1c2ccccc2c2ncn(Cc3ccc(F)cc3)c(=O)c21,6.71 µM
25,COCCCNC(=O)c1ccc(Cn2c(=O)c3ccccc3n(CC(=O)Nc3ccc(OC)cc3)c2=O)cc1,20.1 µM

row,Compound,IC50
1,c1ccc(-n2nnc(-c3noc(-c4ccccn4)n3)c2-c2ccncc2)cc1,23.9 µM
2,CNS(=O)(=O)c1ccc(CNC(=O)c2cc(-c3ccc(C)cc3)no2)cc1,21 µM
3,Nc1c(-c2ccc(Cl)cc2)cnc2cc(-c3ccc(Cl)c(Cl)c3)nn12,3.28 µM
4,COc1cc(N)c(Cl)cc1C(=O)OCC(=O)c1ccc2c(c1)OCCO2,6.12 µM
5,Nc1ncnc(SCc2ccc(Cl)cc2)n1,19.7 µM
6,Cc1cc(=O)n(C)c2c(O)c3c(cc12)c(C)cc(=O)n3C,43.9 µM
7,Cc1ccc(NC(=O)CCC(=O)Nc2ccc3nc(N4CCCCC4)cc(C)c3c2)c(Br)c1,22.7 µM
8,COc1ccc(CCNC(=O)c2noc3c2CCc2sccc2-3)cc1OC,0.655 µM
9,O=C1CC(c2ccco2)Cc2[nH]c(=O)c(-c3nc(-c4ccc(Cl)cc4)cs3)cc21 (centres undefined),> 50 µM (inactive)
10,COC(=O)c1cc2c(ccn2C)n1CC(=O)NC1CC1,> 50 µM (inactive)
11,COc1ccc(OCCn2c(C3CC(=O)N(c4cccc(C)c4)C3)nc3ccccc32)cc1 (centres undefined),1.57 µM
12,Cc1nc(SCC(=O)Nc2cc(Cl)ccc2C)c2oc3ccccc3c2n1,2.06 µM
13,COc1ccc(Cl)cc1NC(=O)c1cc(-c2ccccn2)n[nH]1,0.547 µM
14,N#Cc1ccc(Cl)cc1NC(=O)COc1cccnc1[N+](=O)[O-],49.8 µM
15,Fc1ccc(Cn2ccc(-c3cnc(-c4ccccc4)s3)n2)cc1,27.4 µM
16,COC(=O)c1sc2ccccc2c1NC(=O)c1ccc(Br)s1,15.8 µM
17,CCc1ccc(C(C)NC(=O)C2CCN(c3ccc4nncn4n3)CC2)cc1 (centres undefined),16.4 µM
18,Cc1cc(C)c2c(-n3cccc3)c(C(=O)NCCc3ccc(S(N)(=O)=O)cc3)sc2n1,2.55 µM
19,Cc1cccc(-n2nc(C)c3c2NC(=O)CC3C(=O)c2cc3ccccc3o2)c1 (centres undefined),25.3 µM
20,COc1ccc(CCNC(=O)CCn2c(=O)c3ccccc3n(Cc3ccc(C)cc3)c2=O)cc1OC,22 µM
21,CN1CCN(C(=O)c2ccn(-c3ccc4ccc(-c5cnn(C)c5)cn34)n2)CC1,> 50 µM (inactive)
22,O=[N+]([O-])c1ccc(NCc2ccc(-c3cccs3)s2)nc1,2.19 µM
23,O=C(c1ccc(COc2cccc3ccccc23)o1)N1CCC(Cc2ccccc2)CC1,> 50 µM (inactive)
24,CCC(C)Oc1cccc(C(=O)Nc2ccc(CN3CCOCC3)cc2)c1 (centres undefined),1.74 µM
25,CC(=O)Nc1ccc(Cc2nc(-c3ccc4c(c3)nc(C)c(=O)n4C3CCCC3)no2)cc1,> 50 µM (inactive)

row,Compound,IC50
1,"CC1NC(=O)C(CC(N)=O)NC(=O)C(C(C)O)NC(=O)C(Cc2ccc(O)cc2)NC(=O)C(C(C)C)NC(=O)C(NC(=O)CC(O)CCCCCCCCCCCCN=C(N)N)C(C)OC1=O (centres undefined) ({Pentadecanoyl(3ξ-OH,15-Gua)}-TVYTNA; ester 1-C; configuration not given here)",3.63 µM
2,CC1=C(c2ccc(F)cc2)S(=O)(=O)NC1=NCC(=O)Nc1ccc(F)cc1F,41.1 µM
3,O=C(NCc1ccccc1)c1ccc(-c2ccc(N3CCCC3)nn2)cc1,> 50 µM (inactive)
4,COc1ccc(C(=O)Nc2ccc(S(=O)(=O)N3CCCCC3)cc2)cc1,17.4 µM
5,COc1ccc2nc(Nc3nc(-c4cnc(N5CCOCC5)nc4C)cc(=O)[nH]3)nc(C)c2c1,> 50 µM (inactive)
6,Cc1cccc(NC(=O)c2noc3c2CCc2sccc2-3)n1,16.8 µM
7,O=C(COc1nc2ccccc2nc1N1CCOCC1)Nc1cccc(S(=O)(=O)N2CCCCC2)c1,> 50 µM (inactive)
8,Cc1ccc(NC(=O)c2nnn(-c3ccccc3)n2)cc1F,19.9 µM
9,COc1ccccc1-c1ccc(CN2[C@@H](c3ccccc3)C[C@@H]3NC(=O)CCC[C@H]32)cc1,> 50 µM (inactive)
10,COc1ccc(CC(=O)Nc2cccc(-c3nc4ncccc4o3)c2)cc1OC,> 50 µM (inactive)
11,O=C(COC(=O)c1cc2c(s1)CCC2)c1ccc2[nH]c(=O)[nH]c2c1,6.48 µM
12,Cn1nc(-c2nc(-c3ccccc3)no2)c2c1CCN(C(=O)C1CCCC1)C2,24.1 µM
13,CC(=O)c1cccc(NC(=O)c2ccc(N3CCCCC3)nn2)c1,32.4 µM
14,Cc1ccc(Nc2nc(Nc3cccc(F)c3)nc3nccnc23)c(C)c1,> 50 µM (inactive)
15,COc1cccc(NC(=O)Cc2sc(Nc3cc(C)cc(C)c3)nc2O)c1,18.1 µM
16,Cc1nn(-c2ccc(Cl)cc2)c2[nH]c(=O)c(CNCC3CCCO3)cc12 (centres undefined),> 50 µM (inactive)
17,Cn1cccc1C(=O)N1CCCC2(C1)Nc1cccnc1NC2=NC1CCCC1 (centres undefined),> 50 µM (inactive)
18,COc1cc(Cl)c(C)cc1NC(=O)Cn1c(=O)n(CC(=O)NCc2ccco2)c(=O)c2ccccc21,3.4 µM
19,O=C(NCc1ccc(Cl)cc1)Nc1cccc2ccccc12,40.4 µM
20,O=C(Nc1ccc2c(c1)OCO2)c1cc(-c2cccnc2)n(-c2ccccc2)n1,8.27 µM
21,O=C(Cn1nnc(-c2ccc(F)cc2)n1)NCCc1ccccc1,44.3 µM
22,COc1c2c(cc3cc(O)c4c(=O)cc(C)oc4c13)CCC2=O,28.8 µM
23,COc1cccc(-c2cc(C(=O)Nc3cc(C)n(Cc4ccc(Cl)cc4)n3)no2)c1,40.5 µM
24,CC1CC(=O)N(Cc2ccc([N+](=O)[O-])cc2)c2ccccc2S1 (centres undefined),13.3 µM
